Laboratory results published in patent US11007206B2, “Cyclic boronic acid ester derivatives and therapeutic uses thereof” (Melinta Subsidiary Corp., priority 2012, dated 2021).
Read-outs that look alike come from different tables or passages of the source.

How the values were obtained:
in vivo = assay: in vivo; parameters: species or system Swiss-Webster mice; settings: mouse, ip
Procedure: Example 2 provides a summary of two pharmacokinetic studies of Biapenem conducted in Swiss-webster mice. The pharmacokinetics of 100 mg/kg and 25 mg/kg of Biapenem via the intraperitoneal route was discussed below.
Biapenem power was purchased from Hisun Pharmaceuticals. 20 mg of Biapenem was dissolved in 0.1 M NaH2PO4 for a basic stock solution. For animal studies, this stock solution was further diluted in 0.9% saline to the appropriate concentration.
The specifications for animals used on this study were as follows: • Species: Mouse • Strain: CFW (Swiss) • Gender: Female • Source: Harlan Laboratories (Livermore, Calif.) • Number of Animals: 33 for each dose • Body Weight Range: 18-22 g at the start of the study
After acclimation, mice were administered a single intraperitoneal dose of biapenem at 25 or 100 mg/kg. […] Blood samples (one sample per animal) were collected by cardiac puncture in a heparin containing tube. The collected heparin tubes were centrifuged within 5 min of collection at 12000 g for 5 min to obtain plasma. The plasma samples were stored on −80° C. until analyzed.
Biapenem standard curves were prepared in 50% plasma-50% 1M MOPS buffer, pH=7.4 from 1 to 250 ug/mL. 20 uL of sample or standard was added into a 96-well deep well plate. Then 500 uL of 10% water-45% methanol-45% acetonitrile containing 2 ug/mL of meropenem was used as an internal standard. The plate was vortexed for 15 min. at 3,000 RPM. 50 uL of supernatant was removed and added 300 uL of water. 10 uL of samples were injected onto an HPLC-MS system for quantification.
The HPLC-MS conditions for the Biapenem plasma analysis are as follows: • Column: Supelco Discovery HS F5 or equivalent pentafluorophenyl column, 5 um, 50×2.1 mm. • Flow rate: 0.6 mL/min. • Mobile phase A: 0.1% formic acid in water. • Mobile phase B: 0.1% formic acid in acetonitrile. • Gradient: 5-70% B in 1.9 min. • Mass spectrometer: Positive ion mode with electrospray ionization. • MS/MS: Biapenem-Q1-m/e=350.8, Q3-m/e=110.1. • meropenem-Q1-m/e=384.1, Q3-m/e=141.1.
Serum concentrations were determined using HPLC. Serum concentrations were fit by using Non-compartmental model of WinNonlin Software (Pharsight. Version 5.3, Mountain View, Calif.).

[1] = system: multi-drug resistant strains of Enterobacteriaceae, including those producing serine carbapenemases; assay: Checkerboard MIC of Biapenem alone or in combination with Compound I at fixed concentrations (Example 4); assay type: cell-based
Procedure: The evaluation of Compound I in combination with the carbapenem antibiotic Biapenem against multi-drug resistant strains of Enterobacteriaceae, including those producing serine carbapenemases were also conducted. Antibiotic potentiation activity of Compound I was studied in checkerboard MIC experiments and time-kill assays. The MICs of Biapenem were […]) against characterized and engineered isolates producing various beta-lactamases, as well as in geographically diverse panels of multi-drug resistant strains of Enterobacteriaceae (including strains that express the most relevant beta-lactamases).

[2] = Single-dose pharmacokinetics of Compound I, intraperitoneal administration to Swiss-Webster mice (Example 5); assay type: in vivo; settings: plasma, Mouse; for CL/F: read-out: CL or CL/F (converted)
Procedure: (§1) Example 5 provides the single-dose pharmacokinetic studies of Compound I inpreclinical species, including intraperitoneal administration to Swiss-Webster mice and intravaneous administration to Sprague-Dawley rats, Beagle dogs, and Cynomologus monkeys.
(§2) Intravaneous doses of Compound I were administered as 30-minute infusions. The pharmacokinetics of Compound I were also studied with coadministration of the carbapenem, Biapenem. Compound I concentrations were determined using an LC-MS detection method.

[3] = Single-dose pharmacokinetics of Compound I, intravenous 30-minute infusion in Sprague-Dawley rats (Example 5); assay type: in vivo; settings: Rat; for AUC / Cmax / half-life: Sprague-Dawley, in vivo
Procedure: as §1, §2

[4] = Single-dose pharmacokinetics of Compound I, intravenous 30-minute infusion in Cynomologus monkeys (Example 5); assay type: in vivo; settings: Monkey; for half-life / AUC / Cmax: in vivo
Procedure: as §1, §2

[5] = Single-dose pharmacokinetics of Compound I across all preclinical species, summary statements incl. coadministration of Biapenem (Example 5); assay type: in vivo
Procedure: as §1, §2

[6] = female, CFW (Swiss-Webster), 25 mg/kg
[7] = female, CFW (Swiss-Webster), 100 mg/kg
[8] = female, CFW (Swiss-Webster), 100 mg/kg, Calc. Conc. (plasma concentration)

## C[C@@H](O)[C@H]1C(=O)N2C(C(=O)[O-])=C(SC3Cn4cnc[n+]4C3)[C@H](C)[C@H]12 (some centres unmarked) [Biapenem]
In vivo; [6]
  Cl: 1.6 L/h/kg
  Cmax: 31.2 µg/mL
  half-life: 10.2 min
In vivo; [7]
  Cl: 0.96 L/h/kg
  Cmax: 286 µg/mL
  half-life: 12.6 min
In vivo; [8]
  concentration at 0.08 h: 1770 ng/mL
  concentration at 0.25 h: 68.4 µg/mL
  concentration at 0.5 h: 120 ng/mL
  concentration at 0.75 h: 30500 ng/mL
  concentration at 3 h: 12.3 ng/mL
  concentration at 4 h: 10.2 ng/mL
In vivo; 25 mg/kg
  AUC: 15.56 mg·h/kg
  Calc. Conc. (plasma concentrations of Biapenem): No Peak
In vivo; 100 mg/kg
  AUC: 103.55 mg·h/kg
[1]; read-out: Biapenem MICs in the presence of Compound I, in the presence of 0.3 to 5 μg/ml of Compound I, characterized strains of Enterobacteriaceae with serine carbapenemases
  MIC: < 0.25 µg/mL
[1]; read-out: Biapenem MICs, Biapenem alone, KPC-producing strains including those expressing multiple classes of enzymes
  MIC: 8 to 64 µg/mL
[1]; read-out: Biapenem MICs, Biapenem alone, KPC-producing strains used in the time-kill studies
  MIC: 16 to 32 µg/mL
[1]; read-out: MIC90 of Biapenem with Compound I
  MIC90: 0.5 µg/mL

## O=C(O)C[C@@H]1CC[C@H](NC(=O)Cc2cccs2)B(O)O1 [Compound I]
[2]; 5 mg/kg IP
  AUC: 3100 ng·h/mL
  Cmax: 8260 ng/mL
  half-life: 9.6 min
  CL/F: 26.8 mL/min/kg
[2]; 15 mg/kg IP
  AUC: 8300 ng·h/mL
  Cmax: 19500 ng/mL
  half-life: 12 min
  CL/F: 30 mL/min/kg
[2]; 50 mg/kg IP
  AUC: 31400 ng·h/mL
  Cmax: 67100 ng/mL
  half-life: 15 min
  CL/F: 26.7 mL/min/kg
[3]; 20 mg/kg IV
  CL or CL/F: 1.7 ± 0.06 L/kg/h
  AUC: 12200 ± 430 ng·h/mL
  Cmax: 19800 ± 840 ng/mL
  half-life: 96 ± 10.2 min
[3]; 50 mg/kg IV
  AUC: 28200 ± 2000 ng·h/mL
  Cmax: 45900 ± 2000 ng/mL
  half-life: 270 ± 80.4 min
[4]; 2 mg/kg IV
  CL or CL/F: 0.51 ± 0.07 L/kg/h
  AUC: 3960 ± 510 ng·h/mL
  Cmax: 5350 ± 280 ng/mL
  half-life: 34.2 ± 1.8 min
[4]; 6 mg/kg IV
  CL or CL/F: 0.50 ± 0.08 L/kg/h
  AUC: 12200 ± 1890 ng·h/mL
  Cmax: 17000 ± 1680 ng/mL
[4]; 20 mg/kg IV
  CL or CL/F: 0.48 ± 0.03 L/kg/h
[4]; cynomolgus, 6 mg/kg IV
  half-life: 33 ± 7.2 min
[4]; cynomolgus, 20 mg/kg IV
  AUC: 41800 ± 2530 ng·h/mL
  Cmax: 54900 ± 3320 ng/mL
  half-life: 113 ± 104 min
[5]; across all species (mice, rats, dogs, monkeys), single dose
  Pharmacokinetic properties: linear and favorable pharmacokinetic properties
[5]; across preclinical species, single dose
  Dose dependence of clearance and volume of distribution: independent of dose
[5]; coadministration of Biapenem
  PK drug interactions between Compound I and Biapenem: No PK drug interactions
